Source: patent US8604076B2, “Method for producing a pharmaceutical composition comprising rotigotine” (UCB Pharma GmbH, priority 2000, dated 2013)

Columns and labels:
[1] = release of N-0923 from the depot form, plasma level and bioavailability; format: in vivo; conditions: depot formulation according to the invention, read-out: bioavailability of the pharmaceutical composition according to the invention
Procedure: Sprague-Dawley rats were given subcutaneous bolus injections of an oily N-0923 crystalline suspension of the following composition:
6, 24 and 48 hours after the 2nd and 46th administration plasma samples were taken and the N-0923 concentration was analyzed using LC-MS-MS. The readings from 6 animals were averaged.
The test conditions were identical to those in implementation example 5 except that every 48 hours a dose of 12.5 mg N-0923 per kg body weight was applied.
Readings were taken 2, 4, 8, 24, 32 and 48 hours after the 22nd application and were quantified.

[2] = release of N-0923 from the depots in the monkey, dose versus plasma level; format: in vivo, Cynomolgus monkeys; conditions: oily crystalline suspensions, FIG. 4, after 3 and 85 daily applications
Procedure: Cynomolgus monkeys were given daily subcutaneous bolus injections of oily N-0923 crystalline suspensions of the following composition: The application was performed daily in dosages of 0.25, 1 and 4 mg/kg. 2, 6 and 24 hours after the 3rd and 85th application plasma samples were taken and analyzed using LC-MS-MS.

[3] = distinct first-pass effect; cited from earlier work
[4] = monkeys, aqueous solution; cited from earlier work
[5] = aqueous solution (5% dextrose); cited from earlier work

## CCCN(CCc1cccs1)[C@H]1CCc2c(O)cccc2C1 [N-0923, S(-)-2-(N-propyl-N-2-thienylethylamino)-5-hydroxytetralin]
[1]
  bioavailability: > 70%
[2]
  relation of active-agent plasma levels to the dose introduced in the body: largely linear relation
[3]
  bioavailability after oral administration: about 0.5%
[4]
  half-time value after intravenous injection: 52 min
[5]
  time for which the subcutaneous injection was effective: 60 to 70 min
